From patent US8906925B2, “Pyrido[4,3-B]indoles containing rigid moieties” (Medivation Technologies, Inc., priority 2008, dated 2014)
Like-named read-outs stand apart in the source and are kept apart here.

Assays:
[1] = target: T1, human recombinant serotonin (5-Hydroxytryptamine) 5-HT2A receptor (Homo sapiens, UniProt P28223); assay: Serotonin 5-HT2A radioligand binding ([3H]Ketanserin); conditions: read-out: Inhibition of ligand binding, Serotonin 5-HT2A (percent inhibition of specific binding), compound at 0.1 μM
T1 construct: expressed in transfected cells; host or cells: Chinese hamster ovary (CHO-K1) cells
T1 sequence (P28223 whole entry): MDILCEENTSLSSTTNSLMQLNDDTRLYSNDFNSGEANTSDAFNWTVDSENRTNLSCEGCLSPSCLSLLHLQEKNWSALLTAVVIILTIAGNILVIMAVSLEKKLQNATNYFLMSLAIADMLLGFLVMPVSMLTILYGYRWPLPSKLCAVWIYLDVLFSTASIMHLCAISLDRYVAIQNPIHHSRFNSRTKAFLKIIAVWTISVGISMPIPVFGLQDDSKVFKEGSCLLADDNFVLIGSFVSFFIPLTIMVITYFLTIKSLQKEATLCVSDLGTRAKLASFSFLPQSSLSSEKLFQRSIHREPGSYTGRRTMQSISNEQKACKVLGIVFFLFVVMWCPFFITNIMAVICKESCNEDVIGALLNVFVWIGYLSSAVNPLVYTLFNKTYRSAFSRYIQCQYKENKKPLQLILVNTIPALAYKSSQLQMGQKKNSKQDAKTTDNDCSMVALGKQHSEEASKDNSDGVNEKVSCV
Procedure: Compounds of the invention were incubated with 0.5 nM [^3H]Ketanserin for 60 min. at 25° C. Non-specific binding was estimated in the presence of 1 μM Mianserin. Receptor proteins were filtered and washed, the filters were then counted to determine [^3H]Ketanserin specifically bound.

[2] = target: T2, human recombinant serotonin (5-Hydroxytryptamine) 5-HT6 receptor (Homo sapiens, UniProt P50406); assay: Serotonin 5-HT6 radioligand binding ([3H]LSD); conditions: read-out: Inhibition of ligand binding, Serotonin 5-HT6 (percent inhibition of specific binding); for inhibition at 0.1 µM: compound at 0.1 μM
T2 construct: expressed in transfected cells; host or cells: human HeLa cells
T2 sequence (P50406 whole entry): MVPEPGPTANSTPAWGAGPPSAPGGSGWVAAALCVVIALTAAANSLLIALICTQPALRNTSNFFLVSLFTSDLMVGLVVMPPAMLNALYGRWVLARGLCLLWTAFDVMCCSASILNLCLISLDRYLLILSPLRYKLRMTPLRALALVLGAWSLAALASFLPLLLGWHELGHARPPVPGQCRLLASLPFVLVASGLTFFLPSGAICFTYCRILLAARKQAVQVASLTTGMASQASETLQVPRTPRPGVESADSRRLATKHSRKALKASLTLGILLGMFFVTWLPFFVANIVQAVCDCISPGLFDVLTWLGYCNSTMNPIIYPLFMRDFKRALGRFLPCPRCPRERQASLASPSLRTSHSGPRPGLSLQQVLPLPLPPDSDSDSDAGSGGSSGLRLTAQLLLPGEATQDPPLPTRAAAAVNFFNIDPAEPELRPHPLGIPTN
Procedure: Compounds of the invention were incubated with 1.5 nM [3H]Lysergic acid diethylamide (LSD) for 120 min. at 37° C. […] Receptor proteins were filtered and washed, the filters were then counted to determine [3H]LSD specifically bound. Compounds were screened at 1 μM or lower, using 1% DMSO as vehicle. Biochemical assay results are presented as the percent inhibition of specific binding in Table 10.

[3] = target: T3, human recombinant serotonin (5-Hydroxytryptamine) 5-HT2C receptor (Homo sapiens, UniProt P28335); assay: Serotonin 5-HT2C radioligand binding ([3H]Mesulergine); conditions: read-out: Inhibition of ligand binding, Serotonin 5-HT2C (percent inhibition of specific binding); for inhibition at 0.1 µM: compound at 0.1 μM
T3 construct: expressed in transfected cells; host or cells: Chinese hamster ovary (CHO-K1) cells
T3 sequence (P28335 33-458): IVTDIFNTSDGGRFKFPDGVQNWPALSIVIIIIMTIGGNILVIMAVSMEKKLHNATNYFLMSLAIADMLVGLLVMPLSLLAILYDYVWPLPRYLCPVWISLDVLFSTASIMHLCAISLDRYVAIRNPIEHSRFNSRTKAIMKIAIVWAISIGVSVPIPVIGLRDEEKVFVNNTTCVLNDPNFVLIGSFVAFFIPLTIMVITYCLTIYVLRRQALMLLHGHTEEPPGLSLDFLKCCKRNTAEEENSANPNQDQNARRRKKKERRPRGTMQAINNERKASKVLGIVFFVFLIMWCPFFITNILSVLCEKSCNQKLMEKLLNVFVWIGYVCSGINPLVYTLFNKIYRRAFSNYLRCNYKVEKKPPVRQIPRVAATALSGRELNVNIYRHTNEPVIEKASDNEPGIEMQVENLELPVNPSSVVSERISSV
Procedure: Compounds of the invention were incubated with 1 nM [^3H]Mesulergine for 60 min. at 25° C. Non-specific binding was estimated in the presence of 1 μM Mianserin. Receptor proteins were filtered and washed, the filters were then counted to determine [^3H]Mesulergine specifically bound. Compounds were screened at 1 μM or lower, using 1% DMSO as vehicle. Biochemical assay results are presented as the percent inhibition of specific binding in Table 10.

histamine receptor H1 = histamine receptor H1 (Homo sapiens, UniProt P35367); assay: Histamine H1 radioligand binding ([3H]Pyrilamine); conditions: for inhibition at 1 µM: read-out: Histamine Binding (1 μM) H1, percent inhibition of specific binding, 1 μM
Chain of histamine receptor H1 (P35367 whole entry): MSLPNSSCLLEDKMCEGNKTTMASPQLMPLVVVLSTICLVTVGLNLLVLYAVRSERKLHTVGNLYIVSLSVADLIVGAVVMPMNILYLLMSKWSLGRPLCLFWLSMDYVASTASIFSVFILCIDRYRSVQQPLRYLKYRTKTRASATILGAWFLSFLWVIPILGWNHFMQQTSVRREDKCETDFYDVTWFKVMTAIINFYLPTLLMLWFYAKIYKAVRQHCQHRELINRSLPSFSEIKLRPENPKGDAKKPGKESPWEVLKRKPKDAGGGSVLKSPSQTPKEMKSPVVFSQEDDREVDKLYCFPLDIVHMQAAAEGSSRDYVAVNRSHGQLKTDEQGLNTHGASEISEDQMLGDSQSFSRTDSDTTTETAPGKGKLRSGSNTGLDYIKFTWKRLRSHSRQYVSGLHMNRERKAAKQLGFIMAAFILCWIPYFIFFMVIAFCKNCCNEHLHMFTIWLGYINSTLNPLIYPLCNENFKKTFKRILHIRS
In short: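 Values are percent inhibition of specific [3H]pyrilamine (1.2 nM) binding with compounds at ≤1 μM (1% DMSO vehicle); 180 min incubation at 25 °C, pH 7.4 Tris buffer, on CHO-expressed human H1 receptor; 1 μM pyrilamine defined nonspecific binding, bound ligand counted after filtration.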

[4] = target: human recombinant serotonin (5-Hydroxytryptamine) 5-HT7 receptor (Homo sapiens, UniProt P34969); assay: Serotonin 5-HT7 radioligand binding ([3H]LSD); conditions: compound at 0.1 μM; read-out: Inhibition of ligand binding, Serotonin 5-HT7 (percent inhibition of specific binding)
Chain of human recombinant serotonin (5-Hydroxytryptamine) 5-HT7 receptor (P34969 whole entry): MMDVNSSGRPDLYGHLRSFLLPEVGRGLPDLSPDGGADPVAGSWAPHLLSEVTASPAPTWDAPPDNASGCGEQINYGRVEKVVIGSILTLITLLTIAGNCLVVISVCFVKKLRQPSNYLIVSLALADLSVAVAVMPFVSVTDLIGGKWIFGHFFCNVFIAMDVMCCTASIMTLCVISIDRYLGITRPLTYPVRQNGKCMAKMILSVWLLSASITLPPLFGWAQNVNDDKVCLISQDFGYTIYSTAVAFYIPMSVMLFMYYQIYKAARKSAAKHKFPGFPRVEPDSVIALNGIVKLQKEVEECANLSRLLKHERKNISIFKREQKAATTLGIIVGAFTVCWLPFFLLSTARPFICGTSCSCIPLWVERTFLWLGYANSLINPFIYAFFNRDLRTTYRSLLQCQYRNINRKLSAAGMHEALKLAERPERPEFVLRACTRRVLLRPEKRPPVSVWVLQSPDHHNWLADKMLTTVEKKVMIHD
From the text: Receptor proteins were filtered and washed, the filters were then counted to determine [^3H]LSD specifically bound.

[5] = target: human dopamine D2L receptor (Homo sapiens, UniProt P14416); assay: Dopamine D2L radioligand binding ([3H]Spiperone); conditions: compound at 1 μM
Chain of human dopamine D2L receptor (P14416 whole entry): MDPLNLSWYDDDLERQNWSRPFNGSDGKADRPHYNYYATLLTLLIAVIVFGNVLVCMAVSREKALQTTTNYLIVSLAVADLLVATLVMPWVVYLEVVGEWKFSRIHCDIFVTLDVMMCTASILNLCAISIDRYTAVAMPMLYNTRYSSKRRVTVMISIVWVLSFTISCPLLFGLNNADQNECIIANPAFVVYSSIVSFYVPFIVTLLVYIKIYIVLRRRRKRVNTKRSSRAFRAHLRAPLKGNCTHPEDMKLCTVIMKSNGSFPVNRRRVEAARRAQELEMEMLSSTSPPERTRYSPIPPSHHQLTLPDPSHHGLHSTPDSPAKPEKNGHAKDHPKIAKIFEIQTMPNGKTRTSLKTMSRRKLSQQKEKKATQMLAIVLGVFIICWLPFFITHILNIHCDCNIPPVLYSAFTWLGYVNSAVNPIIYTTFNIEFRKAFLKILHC
From the text: Non-specific binding was estimated in the presence of […] Haloperidol. Receptor proteins were filtered and washed, the filters were then counted to determine [^3H]Spiperone specifically bound. […] Biochemical assay results are presented as the percent inhibition of specific binding in Table 9.

[6] = percent inhibition of specific binding, read-out: Inhibition of ligand binding, Dopamine D2L

| SMILES | inhibition at 0.1 µM [1] [%] | inhibition at 0.1 µM [2] [%] | inhibition at 0.1 µM [3] [%] | Histamine Binding (1 μM) H1, percent inhibition of specific binding (histamine receptor H1; 1 μM) [%] | inhibition at 0.1 µM [4] [%] | Inhibition of ligand binding, Dopamine D2L ([5]; percent inhibition of specific binding, 1 µM) [%] | inhibition at 1 µM (histamine receptor H1) [%] | inhibition at 1 µM [5, 6] [%] | inhibition at 1 µM ([2]; compound at 1 μM) [%] | inhibition at 1 µM ([3]; compound at 1 μM) [%] | inhibition at 1 µM ([5]; […] [3H]Spiperone, read-out: Inhibition of ligand binding, Dopamine D2L (percent inhibition of specific binding)) [%] |
| --- | --- | --- | --- | --- | --- | --- | --- | --- | --- | --- | --- |
| CC(=Cn1c2c(c3cc(Cl)ccc31)CN(C)CC2)c1ccc(F)cc1F (stereo in doubt) [Compound 107, 8-chloro-5-((Z)-2-(2,4-difluorophenyl)prop-1-enyl)-2,3,4,5-tetrahydro-2-methyl-1H-pyrido[4,3-b]indole] | 96 | 97 | 95 | 88 | 95 | 72 | – | – | – | – | – |
| COc1ccc([C@](C)(O)Cn2c3c(c4cc(C)ccc42)CN(C)CC3)cc1 [Compound 191, 1-(2,8-dimethyl-3,4-dihydro-1H-pyrido[4,3-b]indol-5(2H)-yl)-2-(4-methoxyphenyl)propan-2-ol] | 98 | 45 | 94 | – | 69 | – | 23 | 15 | – | – | – |
| COc1ccc([C@@](C)(O)Cn2c3c(c4cc(C)ccc42)CN(C)CC3)cc1 [Compound 192, 1-(2,8-dimethyl-3,4-dihydro-1H-pyrido[4,3-b]indol-5(2H)-yl)-2-(4-methoxyphenyl)propan-2-ol] | 91 | 38 | 81 | – | 78 | – | 61 | 34 | – | – | – |
| CC(C)C(O)(Cn1c2c(c3cc(Cl)ccc31)CN(C)CC2)c1ccncc1 (stereo not shown) [Compound 193, 1-(8-chloro-2-methyl-3,4-dihydro-1H-pyrido[4,3-b]indol-5(2H)-yl)-3-methyl-2-(pyridin-4-yl)butan-2-ol] | 69 | 3 | 44 | – | 40 | – | -7 | 14 | – | – | – |
| Cc1ccc2c(c1)c1c(n2CC(O)(c2ccncc2)C(C)C)CCN(C)C1 (stereo not shown) [Compound 194, 1-(2,8-dimethyl-3,4-dihydro-1H-pyrido[4,3-b]indol-5(2H)-yl)-3-methyl-2-(pyridin-4-yl)butan-2-ol] | 71 | 7 | 47 | – | 16 | – | 9 | 12 | – | – | – |
| CCC(O)(Cn1c2c(c3cc(Cl)ccc31)CN(C)CC2)c1ccncc1 (stereo not shown) [Compound 195, 1-(8-chloro-2-methyl-3,4-dihydro-1H-pyrido[4,3-b]indol-5(2H)-yl)-2-(pyridin-4-yl)butan-2-ol] | 62 | 32 | 43 | – | 18 | – | 20 | 17 | – | – | – |
| CCC(O)(Cn1c2c(c3cc(C)ccc31)CN(C)CC2)c1ccncc1 (stereo not shown) [Compound 196, 1-(2,8-dimethyl-3,4-dihydro-1H-pyrido[4,3-b]indol-5(2H)-yl)-2-(pyridin-4-yl)butan-2-ol] | 36 | 10 | 8 | – | 12 | – | 19 | 9 | – | – | – |
| Cc1ccc2c(c1)c1c(n2CC(C)(O)c2ccncn2)CCN(C)C1 (stereo not shown) [Compound 197, 1-(2,8-dimethyl-3,4-dihydro-1H-pyrido[4,3-b]indol-5(2H)-yl)-2-(pyrimidin-4-yl)propan-2-ol] | 17 | 4 | 16 | – | 10 | – | 61 | 14 | – | – | – |
| CN1CCc2c(c3cc(Cl)ccc3n2CC(C)(O)c2ccncn2)C1 (stereo not shown) [Compound 198, 1-(8-chloro-2-methyl-3,4-dihydro-1H-pyrido[4,3-b]indol-5(2H)-yl)-2-(pyrimidin-4-yl)propan-2-ol] | 23 | 11 | -1 | – | 4 | – | 64 | 5 | – | – | – |
| CN1CCc2c(c3cc(Cl)ccc3n2CC(C)(O)c2cnccn2)C1 (stereo not shown) [Compound 199, 1-(8-chloro-2-methyl-3,4-dihydro-1H-pyrido[4,3-b]indol-5(2H)-yl)-2-(pyrazin-2-yl)propan-2-ol] | 40 | 25 | 33 | – | 30 | – | 61 | 16 | – | – | – |
| Cc1ccc2c(c1)c1c(n2CC(C)(O)c2cnccn2)CCN(C)C1 (stereo not shown) [Compound 200, 1-(2,8-dimethyl-3,4-dihydro-1H-pyrido[4,3-b]indol-5(2H)-yl)-2-(pyrazin-2-yl)propan-2-ol] | 30 | 20 | 17 | – | 31 | – | 45 | 6 | – | – | – |
| C/C(=C\n1c2c(c3cc(Cl)c(Cl)cc31)CN(C)CC2)c1ccc(F)cc1 [Compound 248, (E)-7,8-dichloro-5-(2-(4-fluorophenyl)prop-1-enyl)-2-methyl-2,3,4,5-tetrahydro-1H-pyrido[4,3-b]indole] | 108 | 101 | 92 | – | 57 | – | 90 | 95 | – | – | – |
| C/C(=C\n1c2c(c3cc(C(F)(F)F)ccc31)CN(C)CC2)c1ccncc1 [Compound 249, (E)-2-methyl-5-(2-(pyridin-4-yl)prop-1-enyl)-8-(trifluoromethyl)-2,3,4,5-tetrahydro-1H-pyrido[4,3-b]indole] | 90 | 98 | 60 | – | 70 | – | 48 | 93 | – | – | – |
| C/C(=C\n1c2c(c3ccc(C(F)(F)F)cc31)CN(C)CC2)c1ccc(C)nc1 [Compound 250, (E)-2-methyl-5-(2-(6-methylpyridin-3-yl)prop-1-enyl)-7-(trifluoromethyl)-2,3,4,5-tetrahydro-1H-pyrido[4,3-b]indole] | 36 | 13 | 31 | – | 33 | – | 12 | 18 | – | – | – |
| C/C(=C\n1c2c(c3cc(F)ccc31)CN(C)CC2)c1ccc(C)nc1 [Compound 251, (E)-8-fluoro-2-methyl-5-(2-(6-methylpyridin-3-yl)prop-1-enyl)-2,3,4,5-tetrahydro-1H-pyrido[4,3-b]indole] | 85 | 8 | 77 | – | 74 | – | 15 | 25 | – | – | – |
| C/C(=C\n1c2c(c3cc(Cl)ccc31)CN(CCC(C)(C)O)CC2)c1ccncc1 [compound 404, (E)-4-(8-chloro-5-(2-(pyridin-4-yl)prop-1-enyl)-3,4-dihydro-1H-pyrido[4,3-b]indol-2(5H)-yl)-2-methylbutan-2-ol] | – | – | – | – | – | – | 37 | – | 95 | 90 | 92 |
